tested on: analgesic activity of morphine; experiment: Tail Flick Test: increase in the analgesic effect of morphine; type: in vivo, rats; settings: 10'; compound 10 mg/kg i.p. + morphine 2 mg/kg (row Morphine: alone); ± S.E.
Method: Increase in the analgesic effect of analgesic-narcotic drugs in rats in the Tail Flick Test
The method is that described by Harris et al. (J. Pharmacol. Exp. Ther. 143 (1964) 141-148).
Male rats are used which have a weight of about 150-200 g and which have not been fasting. A point is chosen on the tail and this is irradiated by a heat source (75° C.) and the time (in seconds) for which the animal remains without moving its tail is measured.
A maximum period of time under the heat source of 8 seconds is chosen after which the animal is, in any case, removed in order to avoid tissue damage. The measurement is effected before (controls) and after treatment with the drugs.
. The percentage variation is calculated for each individual animal by the following formula: [formula] The measurements are carried out 10, 20, 30, 45, 60 and 90 minutes after treatment with the analgesics.
The results obtained are given in Table 1 which records the groups treated and the doses administered, the
average percentage variations (calculated on groups of five animals) in […]

Point of comparison: `CCc1ccc(C(=O)N[C@@H](Cc2c[nH]c3ccccc23)C(=O)O)cc1` [Compound 19], “percentage variation in the latency of the pain sensation, 10'” value 41.9 ± 12.8%. Against it:
- O=C(N[C@@H](Cc1c[nH]c2ccccc12)C(=O)O)c1ccc(Cl)c(Cl)c1 [Compound 17] — higher, 96.9 ± 4.1%
- Cc1ccc(C(=O)N[C@@H](Cc2c[nH]c3ccccc23)C(=O)O)cc1 [Compound 18] — lower, 7.8 ± 16.1%
- Cc1cccc(C(=O)N[C@@H](Cc2c[nH]c3ccccc23)C(=O)O)c1 [Compound 21] — within error, 30.5 ± 19.7%
- CCCc1ccc(C(=O)N[C@@H](Cc2c[nH]c3ccccc23)C(=O)O)cc1 [Compound 22] — lower, 18.5 ± 5.3%
- CCCCc1ccc(C(=O)N[C@@H](Cc2c[nH]c3ccccc23)C(=O)O)cc1 [Compound 23] — within error, 47.9 ± 15.7%
- CC(C)Cc1ccc(C(=O)N[C@@H](Cc2c[nH]c3ccccc23)C(=O)O)cc1 [Compound 24] — within error, 66.9 ± 14.8%

same assay, conditions: 20'; compound 10 mg/kg i.p. + morphine 2 mg/kg (row Morphine: alone); ± S.E.

Point of comparison: `Cc1cccc(C(=O)N[C@@H](Cc2c[nH]c3ccccc23)C(=O)O)c1` [Compound 21], “percentage variation in the latency of the pain sensation, 20'” value 89.0 ± 11.0%. Against it:
- O=C(N[C@@H](Cc1c[nH]c2ccccc12)C(=O)O)c1ccc(Cl)c(Cl)c1 [Compound 17] — within error, 100.0 ± 0.0%
- Cc1ccc(C(=O)N[C@@H](Cc2c[nH]c3ccccc23)C(=O)O)cc1 [Compound 18] — lower, 14.9 ± 17.1%
- CCc1ccc(C(=O)N[C@@H](Cc2c[nH]c3ccccc23)C(=O)O)cc1 [Compound 19] — lower, 43.9 ± 19.5%
- CCCc1ccc(C(=O)N[C@@H](Cc2c[nH]c3ccccc23)C(=O)O)cc1 [Compound 22] — lower, 39.3 ± 10.5%
- CCCCc1ccc(C(=O)N[C@@H](Cc2c[nH]c3ccccc23)C(=O)O)cc1 [Compound 23] — lower, 50.3 ± 10.1%
- CC(C)Cc1ccc(C(=O)N[C@@H](Cc2c[nH]c3ccccc23)C(=O)O)cc1 [Compound 24] — within error, 61.9 ± 17.5%

same assay, conditions: 30'; compound 10 mg/kg i.p. + morphine 2 mg/kg (row Morphine: alone); ± S.E.

Point of comparison: `O=C(N[C@@H](Cc1c[nH]c2ccccc12)C(=O)O)c1ccc(Cl)c(Cl)c1` [Compound 17], “percentage variation in the latency of the pain sensation, 30'” value 100.0 ± 0.0%. Against it:
- Cc1ccc(C(=O)N[C@@H](Cc2c[nH]c3ccccc23)C(=O)O)cc1 [Compound 18] — lower, 42.1 ± 18.3%
- CCc1ccc(C(=O)N[C@@H](Cc2c[nH]c3ccccc23)C(=O)O)cc1 [Compound 19] — lower, 61.3 ± 18.1%
- Cc1cccc(C(=O)N[C@@H](Cc2c[nH]c3ccccc23)C(=O)O)c1 [Compound 21] — within error, 93.9 ± 6.1%
- CCCc1ccc(C(=O)N[C@@H](Cc2c[nH]c3ccccc23)C(=O)O)cc1 [Compound 22] — lower, 32.2 ± 7.9%
- CCCCc1ccc(C(=O)N[C@@H](Cc2c[nH]c3ccccc23)C(=O)O)cc1 [Compound 23] — lower, 56.9 ± 20.6%
- CC(C)Cc1ccc(C(=O)N[C@@H](Cc2c[nH]c3ccccc23)C(=O)O)cc1 [Compound 24] — lower, 84.4 ± 11.6%

same assay, conditions: 45'; compound 10 mg/kg i.p. + morphine 2 mg/kg (row Morphine: alone); ± S.E.

Point of comparison: `Cc1cccc(C(=O)N[C@@H](Cc2c[nH]c3ccccc23)C(=O)O)c1` [Compound 21], “percentage variation in the latency of the pain sensation, 45'” value 85.9 ± 14.1%. Against it:
- O=C(N[C@@H](Cc1c[nH]c2ccccc12)C(=O)O)c1ccc(Cl)c(Cl)c1 [Compound 17] — lower, 50.3 ± 10.1%
- Cc1ccc(C(=O)N[C@@H](Cc2c[nH]c3ccccc23)C(=O)O)cc1 [Compound 18] — lower, 26.6 ± 20.5%
- CCc1ccc(C(=O)N[C@@H](Cc2c[nH]c3ccccc23)C(=O)O)cc1 [Compound 19] — lower, 49.4 ± 19.5%
- CCCc1ccc(C(=O)N[C@@H](Cc2c[nH]c3ccccc23)C(=O)O)cc1 [Compound 22] — lower, 37.1 ± 13.9%
- CCCCc1ccc(C(=O)N[C@@H](Cc2c[nH]c3ccccc23)C(=O)O)cc1 [Compound 23] — within error, 67.2 ± 20.9%
- CC(C)Cc1ccc(C(=O)N[C@@H](Cc2c[nH]c3ccccc23)C(=O)O)cc1 [Compound 24] — within error, 69.1 ± 14.9%

same assay, conditions: 60'; compound 10 mg/kg i.p. + morphine 2 mg/kg (row Morphine: alone); ± S.E.

Point of comparison: `Cc1cccc(C(=O)N[C@@H](Cc2c[nH]c3ccccc23)C(=O)O)c1` [Compound 21], “percentage variation in the latency of the pain sensation, 60'” value 99.2 ± 0.8%. Against it:
- O=C(N[C@@H](Cc1c[nH]c2ccccc12)C(=O)O)c1ccc(Cl)c(Cl)c1 [Compound 17] — lower, 85.4 ± 11.5%
- Cc1ccc(C(=O)N[C@@H](Cc2c[nH]c3ccccc23)C(=O)O)cc1 [Compound 18] — lower, 32.7 ± 25.9%
- CCc1ccc(C(=O)N[C@@H](Cc2c[nH]c3ccccc23)C(=O)O)cc1 [Compound 19] — lower, 28.5 ± 17.0%
- CCCc1ccc(C(=O)N[C@@H](Cc2c[nH]c3ccccc23)C(=O)O)cc1 [Compound 22] — lower, 35.5 ± 10.0%
- CCCCc1ccc(C(=O)N[C@@H](Cc2c[nH]c3ccccc23)C(=O)O)cc1 [Compound 23] — lower, 41.1 ± 16.3%
- CC(C)Cc1ccc(C(=O)N[C@@H](Cc2c[nH]c3ccccc23)C(=O)O)cc1 [Compound 24] — lower, 65.2 ± 11.4%

same assay, conditions: 90'; compound 10 mg/kg i.p. + morphine 2 mg/kg (row Morphine: alone); ± S.E.

Point of comparison: `CCc1ccc(C(=O)N[C@@H](Cc2c[nH]c3ccccc23)C(=O)O)cc1` [Compound 19], “percentage variation in the latency of the pain sensation, 90'” value 14.4 ± 12.9%. Against it:
- O=C(N[C@@H](Cc1c[nH]c2ccccc12)C(=O)O)c1ccc(Cl)c(Cl)c1 [Compound 17] — within error, 29.6 ± 4.5%
- Cc1ccc(C(=O)N[C@@H](Cc2c[nH]c3ccccc23)C(=O)O)cc1 [Compound 18] — within error, 41.1 ± 24.3%
- Cc1cccc(C(=O)N[C@@H](Cc2c[nH]c3ccccc23)C(=O)O)c1 [Compound 21] — higher, 56.3 ± 17.4%
- CCCc1ccc(C(=O)N[C@@H](Cc2c[nH]c3ccccc23)C(=O)O)cc1 [Compound 22] — within error, 24.5 ± 6.6%
- CCCCc1ccc(C(=O)N[C@@H](Cc2c[nH]c3ccccc23)C(=O)O)cc1 [Compound 23] — within error, 36.1 ± 18.0%
- CC(C)Cc1ccc(C(=O)N[C@@H](Cc2c[nH]c3ccccc23)C(=O)O)cc1 [Compound 24] — within error, 32.7 ± 19.9%

same assay, conditions: mean 10'-90'; compound 10 mg/kg i.p. + morphine 2 mg/kg (row Morphine: alone)

Point of comparison: `O=C(N[C@@H](Cc1c[nH]c2ccccc12)C(=O)O)c1ccc(Cl)c(Cl)c1` [Compound 17], “M(10'-90') average percentage variation” value 85.0%. Against it:
- Cc1ccc(C(=O)N[C@@H](Cc2c[nH]c3ccccc23)C(=O)O)cc1 [Compound 18] — lower, 27.5%
- CCc1ccc(C(=O)N[C@@H](Cc2c[nH]c3ccccc23)C(=O)O)cc1 [Compound 19] — lower, 39.9%
- Cc1cccc(C(=O)N[C@@H](Cc2c[nH]c3ccccc23)C(=O)O)c1 [Compound 21] — lower, 77.3%
- CCCc1ccc(C(=O)N[C@@H](Cc2c[nH]c3ccccc23)C(=O)O)cc1 [Compound 22] — lower, 31.2%
- CCCCc1ccc(C(=O)N[C@@H](Cc2c[nH]c3ccccc23)C(=O)O)cc1 [Compound 23] — lower, 49.9%
- CC(C)Cc1ccc(C(=O)N[C@@H](Cc2c[nH]c3ccccc23)C(=O)O)cc1 [Compound 24] — lower, 63.4%

same assay, conditions: rat, in vivo

Point of comparison: `Cc1ccc(C(=O)N[C@@H](Cc2c[nH]c3ccccc23)C(=O)O)cc1` [Compound 18], “Potency ratio relative to morphine alone” value 0.93. Against it:
- O=C(N[C@@H](Cc1c[nH]c2ccccc12)C(=O)O)c1ccc(Cl)c(Cl)c1 [Compound 17] — higher, 2.85
- CCc1ccc(C(=O)N[C@@H](Cc2c[nH]c3ccccc23)C(=O)O)cc1 [Compound 19] — higher, 1.34
- Cc1cccc(C(=O)N[C@@H](Cc2c[nH]c3ccccc23)C(=O)O)c1 [Compound 21] — higher, 2.59
- CCCc1ccc(C(=O)N[C@@H](Cc2c[nH]c3ccccc23)C(=O)O)cc1 [Compound 22] — higher, 1.05
- CCCCc1ccc(C(=O)N[C@@H](Cc2c[nH]c3ccccc23)C(=O)O)cc1 [Compound 23] — higher, 1.67
- CC(C)Cc1ccc(C(=O)N[C@@H](Cc2c[nH]c3ccccc23)C(=O)O)cc1 [Compound 24] — higher, 2.13

tested on: guinea pig gall bladder contracted with CCK-8; experiment: Anti-CCK activity on guinea pig gall bladders in vitro; type: biochemical; settings: CCK-8 10 ng/ml, concentration antagonising 50% of contracting effect
Method: A longitudinal strip of guinea pig gall bladder is placed in a bath of Krebs for isolated organs at a temperature of 32° C. and oxygenated continuously with an oxygen-CO2 mixture (95-5 V/V).
The […] contractions are detected by means of a force transducer and recorded.
The gall bladder is contracted with the use of a CCK-8 solution at a concentration of 10 ng/ml; the antagonistic activity of the compounds of the invention towards the contracting effect of the CCK is determined with the use of different concentrations, the ED50 value, that is the concentration of the compound in mcg/ml capable of antagonising 50% of the contracting effect of the CCK, being determined.
The results obtained are set out in the following table which gives the compounds tested and the ED50 values which are calculated by the method of regression on a test of at least three experiments for each compound studied.

Point of comparison: `CCCc1ccc(C(=O)N[C@@H](Cc2c[nH]c3ccccc23)C(=O)O)cc1` [Compound 22], “Anti CCK-8 activity, ED50” value 25.7 µg/mL. Against it:
- O=C(N[C@@H](Cc1c[nH]c2ccccc12)C(=O)O)c1ccc(Cl)c(Cl)c1 [Compound 17] — 15-fold higher, 398.0 µg/mL
- CCc1ccc(C(=O)N[C@@H](Cc2c[nH]c3ccccc23)C(=O)O)cc1 [Compound 19] — 5.3-fold higher, 135.2 µg/mL
- CCCCc1ccc(C(=O)N[C@@H](Cc2c[nH]c3ccccc23)C(=O)O)cc1 [Compound 23] — 2.9-fold higher, 74.0 µg/mL
- CC(C)Cc1ccc(C(=O)N[C@@H](Cc2c[nH]c3ccccc23)C(=O)O)cc1 [Compound 24] — 13-fold higher, 327.7 µg/mL

In the case of `Cc1ccc(C(=O)N[C@@H](Cc2c[nH]c3ccccc23)C(=O)O)cc1` [Compound 18], the “Anti CCK-8 activity, ED50” value is reported as “IN (inactive up to 400 mcg/ml)”.
`Cc1cccc(C(=O)N[C@@H](Cc2c[nH]c3ccccc23)C(=O)O)c1` [Compound 21] was tested, and the “Anti CCK-8 activity, ED50” value was “IN (inactive up to 400 mcg/ml)”.

Reference: patent US4870097A, “Pharmaceutical use of derivatives of tryptophan” (priority 1984, dated 1989)
